Patent publication US11458189B2, “Cytoprotective drugs” (BALMES TRANSPLANTATION, priority 2017, dated 2022)
Starred links: 1 amine or outer side, 2 acyl side, 3 side chain; linkers in the order of their positions; H or OH if unused. Positions of bridges follow the written chain, without caps; N, C: chain ends. Non-standard residues stand in square brackets, D forms with d. Residues, ends and D or L forms follow the SMILES beside them. *: point of attachment. hTyr(3S-OH,4S-OH,3'-OSO3H) = N[C@H](C(=O)O)[C@H](O)[C@@H](O)c1ccc(O)c(OS(=O)(=O)O)c1; Orn(4R-OH,5R-OH) = O=C([C@H](C[C@@H](O)[C@@H](O)N[*:3])N[*:1])[*:2]; Pro(3S-OH,4S-Me) = C[C@H]1CN[C@H](C(=O)O)[C@H]1O; X1 = CCCCCOc1ccc(-c2cc(-c3ccc(C(=O)*)cc3)no2)cc1; Gln(3R-OH) = NC(=O)C[C@@H](O)[C@H](N)C(=O)O; Hyp = O=C(O)[C@@H]1C[C@@H](O)CN1

System: Human Renal Glomerular Endothelial Cells (HRGEC)
Test: Oxygen and glucose deprivation followed by replenishment, cell survival (calcein AM), HRGEC
Assay type: cell-based
Description: Anidulafungin and micafungin were tested on Human Renal Glomerular Endothelial Cells (HRGEC, Innoprot P10665), on Human Renal Proximal Tubular Epithelial Cells (HRPTEpiC, Innoprot P10662), on Human Astrocytes (HA, caltag SC-1800), on Human Cardiac Microvascular Endothelial Cells (HCMEC, Caltag SC-6000), on Human Hepatic Sinusoidal Endothelial Cells (HHSEC, Caltag SC-5000), on Rat Primary Kidney Glomerular Endothelial cells (Cellbiologics, RN-6014G) and on Bovine Brain Microvascular Endothelial Cells (BBMEC, Caltag SC-B100).
In a first phase, these isolated, purified and cryopreserved cells are thawed and multiplied according to the supplier's recommendations in T75 or T175 flasks pre-coated with 2 μg of fibronectin/[…] (CORNING) for HRGEC, HCMEC, HHSEC and BBMEC, or 2 μg poly-L-lysin/cm^2 (Caltag SC-0403) for HRPTEpiC and HA, or 15 mL/flask 175 cm^2 gelatin-based solution (Cellbiologics) in the presence of endothelial cell supplemented growth medium ECM (P60104, INNOPROT, Caltag, SC-1001) for HRGEC, HCMEC, HHSEC, RPKGEC or BBMEC, or astrocyte cell supplemented growth medium AM (Caltag SC-1801) for HA or epithelial cell supplemented growth medium EpiCM (P60106, INNOPROT) for HRPTEpiC, at 37° C. under 5% CO2 and saturated humidity until their confluency. They are then harvested by trypsinization according to the method described by the supplier for exactly 5 minutes and then reseeded in new flasks a maximum of three times.
To carry out the oxygen and glucose deprivation test followed by their replenishment, the cells will be seeded in 96-well black plates with transparent flat bottom (GREINER). Once a sufficient number of cells has been obtained to allow seeding of 2000 to 15000 cells per well of 96-well plates depending on the cell type, the cells are seeded in these 96-well plates previously coated with an extracellular matrix as listed above for the flasks. The cells are cultured for 5 to 8 days according to the cell type, in the presence of the same growth medium as in the flask as described above except for HRGEC and HRPTEpiC for which DMEM (DUTSCHER) with 1 g/L of supplemented glucose is used, at 37° C. under 5% CO2 and saturated humidity to obtain confluency.
On the first day of oxygen and glucose deprivation, (5th, 6th, 7th or 8th day of culture), the culture conditions are drastically changed. The medium of all plates is removed and replaced by DMEM (DUTSCHER) medium without glucose and supplemented only with 1% penicillin-streptomycin (DUTSCHER). Anidulafungin or micafungin dissolved in dimethyl sulfoxide (DMSO) is then added to each well at the desired concentration, resulting in a maximum of 1% DMSO, and the plates are placed under hypoxia at <1% 02 and 5% CO2 at 37° C. for 24 hours of culture. Each compound was tested in a concentration range.
After 24 hours, the growth medium is changed and replaced by a richer medium, DMEM (DUTSCHER) at 1 g/L glucose and 2% FBS (INNOPROT) and 1% penicillin-streptomycin (DUTSCHER). These media will have been pre-equilibrated at 37° C. in advance. The cells are then returned to culture at 37° C. under 20% 02 and 5% CO2 for 22h.
After 22 hours of reoxygenation, the potential protective effect of anidulafungin or micafungin is measured by a cell viability test using calcein AM (CORNING), which is a dye substrate. The calcein AM can easily cross the cell membrane of the viable cells. The AM ester groups mask the part of the molecule that chelates calcium. Once inside the cells, the (non-fluorescent) calcein AM is hydrolyzed to (fluorescent) calcein by endogenous esterases. The resulting calcein molecule binds to calcium inside the cell and remains trapped inside the cell. These molecules emit strong green fluorescence when subjected to […] of a particular wavelength (495 nm). Since dead cells lack esterase activity, only living cells are labelled.
This cell viability test is performed in two steps. […]

CCCCCOc1ccc(-c2cc(-c3ccc(C(=O)N[C@H]4C[C@@H](O)[C@@H](O)NC(=O)[C@@H]5[C@@H](O)[C@@H](C)CN5C(=O)[C@H]([C@H](O)CC(N)=O)NC(=O)[C@H]([C@H](O)[C@@H](O)c5ccc(O)c(OS(=O)(=O)O)c5)NC(=O)[C@@H]5C[C@@H](O)CN5C(=O)[C@H]([C@@H](C)O)NC4=O)cc3)no2)cc1 [Micafungin, {5-[(1S,2S)-2-[(3S,6S,9S,11R,15S,18S,20R,21R,24S,25S,26S)-3-[(1R)-2-carbamoyl-1-hydroxyethyl]-11,20,21,25-tetrahydroxy-15-[(1R)-1-hydroxyethyl]-26-methyl-2,5,8,14,17,23-hexaoxo-18-[(4-{5-[4-(pentyloxy)phenyl]-1,2-oxazol-3-yl}benzene)amido]-1,4,7,13,16,22-hexaazatricyclo[22.3.0.0]heptacosan-6-yl]-1,2-dihydroxyethyl]-2-hydroxyphenyl}oxidanesulfonic acid] (X1-[Orn(4R-OH,5R-OH)]T[Hyp][hTyr(3S-OH,4S-OH,3'-OSO3H)][Gln(3R-OH)][Pro(3S-OH,4S-Me)]; lactam 1-C) was tested, and the “Globalfluo assay 1” value ([Micafungin] log μM −4) was 11181240 arbitrary units, the “Globalfluo assay 2” value ([Micafungin] log μM −4) was 11805530 arbitrary units and the “Globalfluo assay 3” value ([Micafungin] log μM −4) was 11095570 arbitrary units. The Mean globalfluo ([Micafungin] log μM −4) was 11360780 arbitrary units, the “Survival rate (%)” value ([Micafungin] log μM −4) was 37% and the “Globalfluo assay 1” value ([Micafungin] log μM −4.124939) was 12113050 arbitrary units. The “Globalfluo assay 2” value ([Micafungin] log μM −4.124939) was 11168770 arbitrary units, the “Globalfluo assay 3” value ([Micafungin] log μM −4.124939) was 11691720 arbitrary units and the Mean globalfluo ([Micafungin] log μM −4.124939) was 11657847 arbitrary units. The “Survival rate (%)” value ([Micafungin] log μM −4.124939) was 38%, the “Globalfluo assay 1” value ([Micafungin] log μM −4.30103) was 10705920 arbitrary units and the “Globalfluo assay 2” value ([Micafungin] log μM −4.30103) was 12585990 arbitrary units. The “Globalfluo assay 3” value ([Micafungin] log μM −4.30103) was 12661760 arbitrary units, the Mean globalfluo ([Micafungin] log μM −4.30103) was 11984557 arbitrary units and the “Survival rate (%)” value ([Micafungin] log μM −4.30103) was 40%. The “Globalfluo assay 1” value ([Micafungin] log μM −4.39794) was 12034270 arbitrary units, the “Globalfluo assay 2” value ([Micafungin] log μM −4.39794) was 11904770 arbitrary units and the “Globalfluo assay 3” value ([Micafungin] log μM −4.39794) was 11704580 arbitrary units. For the same compound, the Mean globalfluo ([Micafungin] log μM −4.39794) was 11881207 arbitrary units, the “Survival rate (%)” value ([Micafungin] log μM −4.39794) was 39% and the “Globalfluo assay 1” value ([Micafungin] log μM −4.522879) was 9416001 arbitrary units. The “Globalfluo assay 2” value ([Micafungin] log μM −4.522879) was 11987430 arbitrary units, the “Globalfluo assay 3” value ([Micafungin] log μM −4.522879) was 10070420 arbitrary units and the Mean globalfluo ([Micafungin] log μM −4.522879) was 10491284 arbitrary units. For the same compound, the “Survival rate (%)” value ([Micafungin] log μM −4.522879) was 34%, the “Globalfluo assay 1” value ([Micafungin] log μM −4.60206) was 10458840 arbitrary units and the “Globalfluo assay 2” value ([Micafungin] log μM −4.60206) was 10594720 arbitrary units. The “Globalfluo assay 3” value ([Micafungin] log μM −4.60206) was 8636463 arbitrary units, the Mean globalfluo ([Micafungin] log μM −4.60206) was 9896674 arbitrary units and the “Survival rate (%)” value ([Micafungin] log μM −4.60206) was 31%. For the same compound, the “Globalfluo assay 1” value ([Micafungin] log μM −4.69897) was 8790971 arbitrary units, the “Globalfluo assay 2” value ([Micafungin] log μM −4.69897) was 10993750 arbitrary units and the “Globalfluo assay 3” value ([Micafungin] log μM −4.69897) was 9050581 arbitrary units. The Mean globalfluo ([Micafungin] log μM −4.69897) was 9611767 arbitrary units, the “Survival rate (%)” value ([Micafungin] log μM −4.69897) was 30% and the “Globalfluo assay 1” value ([Micafungin] log μM −4.823909) was 9039973 arbitrary units. For the same compound, the “Globalfluo assay 2” value ([Micafungin] log μM −4.823909) was 8208392 arbitrary units, the “Globalfluo assay 3” value ([Micafungin] log μM −4.823909) was 7686254 arbitrary units and the Mean globalfluo ([Micafungin] log μM −4.823909) was 8311540 arbitrary units. For the same compound, the “Survival rate (%)” value ([Micafungin] log μM −4.823909) was 25%, the “Globalfluo assay 1” value ([Micafungin] log μM −5) was 5367938 arbitrary units and the “Globalfluo assay 2” value ([Micafungin] log μM −5) was 7594623 arbitrary units. The “Globalfluo assay 3” value ([Micafungin] log μM −5) was 5742300 arbitrary units, the Mean globalfluo ([Micafungin] log μM −5) was 6234954 arbitrary units and the “Survival rate (%)” value ([Micafungin] log μM −5) was 16%. The “Globalfluo assay 1” value ([Micafungin] log μM −5.09691) was 5198634 arbitrary units, the “Globalfluo assay 2” value ([Micafungin] log μM −5.09691) was 5680528 arbitrary units and the “Globalfluo assay 3” value ([Micafungin] log μM −5.09691) was 4518691 arbitrary units. The Mean globalfluo ([Micafungin] log μM −5.09691) was 5132618 arbitrary units, the “Survival rate (%)” value ([Micafungin] log μM −5.09691) was 11% and the “Globalfluo assay 1” value ([Micafungin] log μM −5.221849) was 5545222 arbitrary units. The “Globalfluo assay 2” value ([Micafungin] log μM −5.221849) was 4844574 arbitrary units, the “Globalfluo assay 3” value ([Micafungin] log μM −5.221849) was 4333143 arbitrary units and the Mean globalfluo ([Micafungin] log μM −5.221849) was 4907646 arbitrary units. The “Survival rate (%)” value ([Micafungin] log μM −5.221849) was 10%, the “Globalfluo assay 1” value ([Micafungin] log μM −5.39794) was 3889914 arbitrary units and the “Globalfluo assay 2” value ([Micafungin] log μM −5.39794) was 3964004 arbitrary units. The “Globalfluo assay 3” value ([Micafungin] log μM −5.39794) was 4064339 arbitrary units, the Mean globalfluo ([Micafungin] log μM −5.39794) was 3972752 arbitrary units and the “Survival rate (%)” value ([Micafungin] log μM −5.39794) was 7%. The “Globalfluo assay 1” value ([Micafungin] log μM −5.69897) was 3399775 arbitrary units, the “Globalfluo assay 2” value ([Micafungin] log μM −5.69897) was 3118863 arbitrary units and the “Globalfluo assay 3” value ([Micafungin] log μM −5.69897) was 3166056 arbitrary units. For the same compound, the Mean globalfluo ([Micafungin] log μM −5.69897) was 3228231 arbitrary units, the “Survival rate (%)” value ([Micafungin] log μM −5.69897) was 4% and the “Globalfluo assay 1” value ([Micafungin] log μM −6) was 3157528 arbitrary units. For the same compound, the “Globalfluo assay 2” value ([Micafungin] log μM −6) was 2851345 arbitrary units, the “Globalfluo assay 3” value ([Micafungin] log μM −6) was 2667237 arbitrary units and the Mean globalfluo ([Micafungin] log μM −6) was 2892037 arbitrary units. For the same compound, the “Survival rate (%)” value ([Micafungin] log μM −6) was 2%, the “Globalfluo assay 1” value ([Micafungin] log μM −6.30103) was 2192241 arbitrary units and the “Globalfluo assay 2” value ([Micafungin] log μM −6.30103) was 2496288 arbitrary units. The “Globalfluo assay 3” value ([Micafungin] log μM −6.30103) was 2306718 arbitrary units, the Mean globalfluo ([Micafungin] log μM −6.30103) was 2331749 arbitrary units and the “Survival rate (%)” value ([Micafungin] log μM −6.30103) was 0%. The “Globalfluo assay 1” value ([Micafungin] log μM −7) was 2276775 arbitrary units, the “Globalfluo assay 2” value ([Micafungin] log μM −7) was 2276419 arbitrary units and the “Globalfluo assay 3” value ([Micafungin] log μM −7) was 1622516 arbitrary units. The Mean globalfluo ([Micafungin] log μM −7) was 2058570 arbitrary units and the “Survival rate (%)” value ([Micafungin] log μM −7) was −1%.
